Test results: patent publication US11564913B2, “Compositions and methods for treating cancer” (Children's Hospital Medical Center, priority 2019, dated 2023)

How the values were obtained:
[1] = system: 369 recombinant wild-type kinases; experiment: Kinome inhibitory activity (Reaction Biology HotSpot); type: biochemical
From the text: (§1) FIG. 7: IODVA1 Kinome Inhibitory Activity.
(§2) IODVA1 has two pyridine groups attached to a central imidazole group. […] To test this hypothesis, applicants evaluated the potential of IODVA1 to interfere with the ability of 369 recombinant wild-type kinases to hydrolyze ATP.
(§3) The Reaction Biology (www.reactionbiology.com) HotSPot miniaturized radioisotope filter binding assay platform was used to measure the activity of 369 wild-type kinases in presence of a single IODVA1 dose (Anastassiadis et al., 2011). In brief, for each reaction, kinase and substrate were mixed in a buffer containing 20 mM HEPES (pH 7.5), 10 mM MgCl2, 1 mM EGTA, 0.02% Brij35, 0.02 mg/ml BSA, 0.1 mM Na3VO4, 2 mM DTT, and 1% DMSO. IODVA1 was then added to a final concentration of 0.5 μM to each reaction mixture. After 20 min incubation at room temperature, reaction was initiated by adding ATP (Sigma-Aldrich) and [γ-^32P]-ATP (PerkinElmer, specific activity of 10 Ci/L). Reactions were incubated for 2 h at room temperature and spotted onto P81 ion exchange cellulose chromatography paper (Whatman). Filter paper was washed in 0.75% phosphoric acid to remove excess ATP. The percent remaining kinase activity relative to a vehicle-containing (DMSO) kinase reaction was calculated for each kinase/IODVA1 pair. Each kinase inhibition assay was done in duplicates and averaged. Data were processed and analyzed in Excel.

YSK4/MAP3K19 = target: T1, YSK4/MAP3K19 (Homo sapiens, UniProt Q56UN5); experiment: as above; type: biochemical; conditions: 0.5 μM
T1 construct: purchased Reaction Biology
From the text: as §1, §2, §3

[2] = Peripheral blood counts (Hemavet) after 12 doses in xenograft mice; type: in vivo; conditions: end of four-week treatment (12 doses)
Method: Peripheral blood collected after 12 doses of IODVA1 in tumor-bearing breast cancer xenograft animals were analyzed for blood counts with a Hemavet. No statistically significant changes in blood counts were detected between vehicle control and IODVA1 treated animals (N=4, mean, SEM).
At the end of the four-week treatment when mice were euthanized, peripheral blood was collected via cardiac puncture to check the effect of IODVA1 on white and red blood cells of treated mice for any sign of toxicity.
For xenograft studies, 1×10^6 MDA-MB-231 cells were suspended in PBS and injected into each inguinal mammary fat pad of nulliparous, 10-week old female athymic nude mice. Tumors were measured weekly with digital calipers and volume was calculated as [(π/6))×L×W^2] (Euhus et al., 1986; Tomayko and Reynolds, 1989). Treatment began eight weeks post-injection, when tumors reached 200 mm^3. Mice received intraperitoneal injections of 250 uL of diluent (5% DMSO in PBS) or […] of compound IODVA1 three times weekly for 4 weeks, for an average drug dose of 3.5 mg/kg. At necropsy, the mice were weighed and the tumors were excised, measured, weighed, fixed in 4% paraformaldehyde, and embedded in paraffin. Peripheral blood was collected by cardiac puncture and analyzed with a Hemavet (Drew Scientific, Miami Lakes, Fla., USA) for complete blood counts. […]

Nalm-1 cells = experiment: Cell survival, trypan blue exclusion; type: cell-based
Method: (B) IODVA1-dependent survival curves of empty vector (red circles) or p190-BCR-ABL1 (black circles) expressing Ba/F3 cells and of Nalm-1 cells. […] (C) p190-BCR-ABL1 (grey line) or Mieg3 (black line) expressing Ba/F3 cells were allowed to grow for 1 day, treated with IODVA1 (IO1, 1 μM) for 1 day, and washed (black arrow). Cells were counted for 7 days using trypan blue exclusion. (D) Ba/F3 cells stably expressing p190-BCR-ABL1 were subjected to colony formation assay in soft agar (0.25% Noble Agar in RPMI/FBS/IL-3) in the presence of DMSO or IODVA1 (1 or 10 μM). Colonies were allowed to form for 10 days then stained with iodonitrotetrazolium (1 mg/mL). Data are representative of at least three independent experiments in triplicates. Note the smaller colony size in 1 μM IODVA1 treatment group. (E) Leukemic burden (%) of treated mice before treatment (left upper panel) and at the indicated treatment time was analyzed by flow cytometry of bone marrow aspirates as population containing B220^+/CD43^+ pro-B cells. (F) Count (%) of residual leukemic (EGFP^+-BCR-ABL1) cells in peripheral blood at weeks 3 and 5 for the secondary transplant mice from FIG. 1D. […]
IODVA1 specifically targets BCR-ABL B-ALL cells in vitro. […] We then assessed survival of p190-BCR-ABL-transformed CD34^+ cells in the presence of IODVA1 by trypan blue exclusion. […]

T1 sequence (Q56UN5 whole entry): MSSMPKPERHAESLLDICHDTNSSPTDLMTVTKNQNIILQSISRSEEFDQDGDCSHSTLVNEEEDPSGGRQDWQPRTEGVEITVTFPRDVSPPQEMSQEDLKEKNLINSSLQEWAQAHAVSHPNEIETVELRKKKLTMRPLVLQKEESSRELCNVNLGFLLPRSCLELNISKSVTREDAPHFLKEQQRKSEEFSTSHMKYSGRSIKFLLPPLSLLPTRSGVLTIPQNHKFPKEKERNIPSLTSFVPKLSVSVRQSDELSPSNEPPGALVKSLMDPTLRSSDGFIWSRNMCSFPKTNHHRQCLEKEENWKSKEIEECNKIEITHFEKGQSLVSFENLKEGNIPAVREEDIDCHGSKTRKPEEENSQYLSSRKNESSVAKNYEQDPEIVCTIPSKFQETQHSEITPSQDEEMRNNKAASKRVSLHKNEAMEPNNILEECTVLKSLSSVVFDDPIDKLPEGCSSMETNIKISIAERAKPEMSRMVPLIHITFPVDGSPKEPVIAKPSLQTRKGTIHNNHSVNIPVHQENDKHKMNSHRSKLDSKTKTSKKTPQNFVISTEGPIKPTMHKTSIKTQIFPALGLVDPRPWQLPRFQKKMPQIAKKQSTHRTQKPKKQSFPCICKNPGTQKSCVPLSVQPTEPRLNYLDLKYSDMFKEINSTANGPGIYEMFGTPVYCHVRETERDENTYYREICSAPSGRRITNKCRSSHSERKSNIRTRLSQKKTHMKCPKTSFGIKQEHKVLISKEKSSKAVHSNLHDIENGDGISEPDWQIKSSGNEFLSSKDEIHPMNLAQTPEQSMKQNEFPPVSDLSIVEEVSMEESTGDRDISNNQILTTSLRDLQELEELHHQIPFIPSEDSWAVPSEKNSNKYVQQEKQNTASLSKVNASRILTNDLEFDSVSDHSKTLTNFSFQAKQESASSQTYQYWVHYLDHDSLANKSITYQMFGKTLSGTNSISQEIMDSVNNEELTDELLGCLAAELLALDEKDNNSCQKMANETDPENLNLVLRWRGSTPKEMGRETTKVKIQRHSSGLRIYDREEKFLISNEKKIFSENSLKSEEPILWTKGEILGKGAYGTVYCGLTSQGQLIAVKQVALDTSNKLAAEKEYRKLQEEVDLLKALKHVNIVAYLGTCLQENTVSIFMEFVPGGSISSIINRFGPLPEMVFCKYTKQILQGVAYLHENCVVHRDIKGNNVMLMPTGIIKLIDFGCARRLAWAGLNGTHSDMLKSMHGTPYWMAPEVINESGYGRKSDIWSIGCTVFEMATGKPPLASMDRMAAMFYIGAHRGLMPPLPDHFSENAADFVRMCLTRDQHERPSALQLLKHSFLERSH

## OC1(c2ccccn2)N=C(Nc2nc3ccccc3[nH]2)N=C1c1ccccn1 (centres unmarked) [IODVA1, (Z)-2-((1H-benzo[d]imidazol-2-yl)imino)-4,5-di(pyridin-2-yl)-2,5-dihydro-1H-imidazol-5-ol]
[1]
  inhibitory activity against major wild-type kinases including ABL1 and SRC-like kinases: no inhibitory activity
[1]; 0.5 μM, 364 out of 369
  fraction of tested kinases on which ineffective: 98.6%
YSK4/MAP3K19
  increase in activity: 21%
[2]
  WBC, neutrophils, lymphocytes, monocytes, RBC, hemoglobin, hematocrit, MCV, MCH, MCHV, RDW, platelets, mean platelet volume versus vehicle: no significant difference
Nalm-1 cells
  EC50: 0.68 µM
